Key:
[1] = molecular target: Inosine-5'-monophosphate dehydrogenase 2 (Homo sapiens, UniProt P12268); assay: Inhibition of IMPDH2 (unknown origin)
[2] = molecular target: Inosine-5'-monophosphate dehydrogenase 1 (Homo sapiens, UniProt P20839); assay: Inhibition of IMPDH1 (unknown origin)
[3] = system: K562; assay: Antiproliferative activity against human K562 cells; type: functional, cell-based
[4] = system: HT-29; assay: Antiproliferative activity against human HT-29 cells; type: functional, cell-based
[5] = system: HeLa; assay: Antiproliferative activity against human HeLa cells; type: functional, cell-based
[6] = organism: Homo sapiens; assay: Selectivity ratio of Ki for IMPDH2 (unknown origin) to Ki for IMPDH1 (unknown origin)
[7] = organism: Homo sapiens; assay: Selectivity ratio of Ki for IMPDH1 (unknown origin) to Ki for IMPDH2 (unknown origin)
[8] = Binding affinity to human IMPDH
[9] = system: PC-3; assay: Antiproliferative activity against human PC3 cells; type: functional, cell-based
[10] = system: HL-60; assay: Antiproliferative activity against human HL60 cells; type: functional, cell-based
[11] = system: DU-145; assay: Antiproliferative activity against human DU145 cells; type: functional, cell-based
[12] = Drug degradation in human plasma after 24 hrs; type: ADME, cell-free; conditions: read-out: Drug degradation
[13] = system: Plasma; assay: Metabolic stability in human plasma; type: ADME, cell-free

Sequence of Inosine-5'-monophosphate dehydrogenase 1 (P20839 whole entry): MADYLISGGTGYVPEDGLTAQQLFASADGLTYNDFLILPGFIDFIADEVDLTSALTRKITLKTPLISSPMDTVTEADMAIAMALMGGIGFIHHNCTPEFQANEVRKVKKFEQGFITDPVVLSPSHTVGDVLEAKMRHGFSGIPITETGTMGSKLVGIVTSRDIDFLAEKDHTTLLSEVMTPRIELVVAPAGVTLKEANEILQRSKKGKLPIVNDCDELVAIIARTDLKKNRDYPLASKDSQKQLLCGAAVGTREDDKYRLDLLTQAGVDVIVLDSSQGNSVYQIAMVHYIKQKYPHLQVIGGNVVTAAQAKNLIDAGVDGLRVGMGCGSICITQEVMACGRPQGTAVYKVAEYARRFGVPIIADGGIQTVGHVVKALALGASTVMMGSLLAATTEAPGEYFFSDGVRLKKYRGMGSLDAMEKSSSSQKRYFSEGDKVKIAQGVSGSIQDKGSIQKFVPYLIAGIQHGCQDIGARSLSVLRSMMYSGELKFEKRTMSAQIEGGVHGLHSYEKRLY

| Structure (SMILES) | Ki [1] [µM] | Ki [2] [µM] | IC50 [3] [µM] | IC50 [4] [µM] | IC50 [5] [µM] | Ratio Ki [6] | Ratio Ki [7] | Ki [8] [µM] | IC50 [9] [µM] | IC50 [10] [µM] | IC50 [11] [µM] | metabolised at 24 h [12] [%] | Stability [13] |
| --- | --- | --- | --- | --- | --- | --- | --- | --- | --- | --- | --- | --- | --- |
| COc1c(C)c2c(c(O)c1CCOP(=O)(O)CP(=O)(O)OC[C@H]1O[C@@H](n3cnc4c(N)nc(-c5ccncc5)nc43)[C@H](O)[C@@H]1O)C(=O)OC2 | 0.014 | 0.0006 | 0.4 | 2 | 1 | 23 | – | – | – | – | – | – | – |
| COc1c(C)c2c(c(O)c1CCOP(=O)(O)CP(=O)(O)OC[C@H]1O[C@@H](n3cnc4c(N)cccc43)[C@H](O)[C@@H]1O)C(=O)OC2 | 0.165 | 0.491 | 2.5 | > 100 | 25 | – | 3 | – | – | – | – | – | – |
| COc1c(C)c2c(c(O)c1CCOP(=O)(O)CP(=O)(O)OC[C@H]1O[C@@H](n3cnc4c([N+](=O)[O-])cccc43)[C@H](O)[C@@H]1O)C(=O)OC2 | 0.749 | 0.876 | > 100 | > 100 | > 100 | – | – | – | – | – | – | – | – |
| COc1c(C)c2c(c(O)c1C/C=C(\C)CCC(=O)O)C(=O)OC2 [MYCOPHENOLIC ACID] | – | – | – | – | – | – | – | 0.01 | – | – | – | – | – |
| COc1c(C)c2c(c(O)c1CCOP(=O)(O)CP(=O)(O)OC[C@H]1O[C@@H](n3cnc4c(N)nc(-c5ccco5)nc43)[C@H](O)[C@@H]1O)C(=O)OC2 | 0.037 | 0.063 | 0.8 | 9.8 | 3 | – | – | – | – | – | – | – | – |
| COc1c(C)c2c(c(O)c1C/C=C(\C)CCC(=O)N[C@H](Cc1ccccc1)C(=O)O)C(=O)OC2 | 2.67 | 4.31 | > 100 | – | – | – | – | – | > 100 | > 100 | 10 | – | – |
| COc1c(C)c2c(c(O)c1C/C=C(\C)CCC(=O)N[C@H](C(=O)O)C(C)C)C(=O)OC2 | 0.175 | 0.132 | 55 | – | – | – | – | – | > 100 | 72 | > 100 | – | – |
| COc1c(C)c2c(c(O)c1C/C=C(\C)CCC(=O)N[C@@H](Cc1c[nH]c3ccccc13)C(=O)NC[C@H]1O[C@@H](n3cnc4c(N)ncnc43)[C@H](O)[C@@H]1O)C(=O)OC2 | 0.188 | 0.164 | > 100 | – | – | – | – | – | > 100 | > 100 | > 100 | – | – |
| COc1c(C)c2c(c(O)c1CCOP(=O)(O)CP(=O)(O)OC[C@H]1O[C@@H](n3cnc4c(N)nc(-c5cccs5)nc43)[C@H](O)[C@@H]1O)C(=O)OC2 | 0.056 | 0.082 | 1.5 | 46 | 12 | – | – | – | – | – | – | – | – |
| COc1c(C)c2c(c(O)c1C/C=C(\C)CCC(=O)OC[C@H]1O[C@@H](n3cnc4c(N)ncnc43)[C@H](O)[C@@H]1O)C(=O)OC2 | 0.102 | 0.163 | 0.5 | – | – | – | – | – | 20 | 9.3 | 5.8 | 20 | – |
| COC(=O)[C@H](Cc1c[nH]c2ccccc12)NC(=O)CC/C(C)=C/Cc1c(O)c2c(c(C)c1OC)COC2=O | 0.233 | 0.733 | 6.2 | – | – | – | – | – | > 100 | 8.3 | 9.7 | – | – |
| COc1c(C)c2c(c(O)c1C/C=C(\C)CCC(=O)OCCN1CCOCC1)C(=O)OC2 [MYCOPHENOLATE MOFETIL] | – | – | – | – | – | – | – | – | – | – | – | – | Unstable |
| COc1c(C)c2c(c(O)c1C/C=C(\C)CCC(=O)OC[C@@H]1O[C@H](n3cnc4c(N)ncnc43)[C@@H](O)[C@H]1O)C(=O)OC2 | 0.231 | 2.55 | 1.6 | – | – | – | – | – | – | 2.1 | 1.5 | – | Unstable |
| COc1c(C)c2c(c(O)c1CCOP(=O)(O)CP(=O)(O)OC[C@H]1O[C@@H](n3cnc4c(N)nc(C(F)(F)F)nc43)[C@H](O)[C@@H]1O)C(=O)OC2 | 0.015 | 0.013 | 1 | 8.7 | 4.5 | – | – | – | – | – | – | – | – |
| COc1c(C)c2c(c(O)c1C/C=C(\C)CCC(=O)N[C@@H](Cc1ccc(O)cc1)C(=O)O)C(=O)OC2 | 0.215 | 1.68 | > 100 | – | – | – | – | – | > 100 | > 100 | > 100 | – | – |
| COc1c(C)c2c(c(O)c1C/C=C(\C)CCC(=O)N[C@H](C(=O)NC[C@H]1O[C@@H](n3cnc4c(N)ncnc43)[C@H](O)[C@@H]1O)C(C)C)C(=O)OC2 | 0.07 | 0.019 | > 100 | – | – | – | – | – | > 100 | > 100 | > 100 | – | – |
| COC(=O)[C@H](Cc1ccccc1)NC(=O)CC/C(C)=C/Cc1c(O)c2c(c(C)c1OC)COC2=O | 0.437 | 4.36 | 50 | – | – | – | – | – | > 100 | 35 | > 100 | – | – |
| COc1c(C)c2c(c(O)c1CCOP(=O)(O)CP(=O)(O)OC[C@H]1O[C@@H](n3cnc4c(N)nc(COCc5ccccc5)nc43)[C@H](O)[C@@H]1O)C(=O)OC2 | 0.044 | 0.07 | 3 | > 100 | 11 | – | – | – | – | – | – | – | – |
| COc1c(C)c2c(c(O)c1C/C=C(\C)CCC(=O)N[C@H](Cc1ccccc1)C(=O)NC[C@H]1O[C@@H](n3cnc4c(N)ncnc43)[C@H](O)[C@@H]1O)C(=O)OC2 | 0.0126 | 0.038 | > 100 | – | – | – | – | – | > 100 | > 100 | > 100 | – | – |
| COc1c(C)c2c(c(O)c1C/C=C(\C)CCC(=O)N[C@@H](CO)C(=O)O)C(=O)OC2 | 2.79 | 2.81 | > 100 | – | – | – | – | – | > 100 | > 100 | > 100 | – | – |
| COc1c(C)c2c(c(O)c1C/C=C(\C)CCC(=O)NCC(=O)NC[C@H]1O[C@@H](n3cnc4c(N)ncnc43)[C@H](O)[C@@H]1O)C(=O)OC2 | 0.188 | 0.259 | > 100 | – | – | – | – | – | > 100 | > 100 | > 100 | – | – |
| COc1c(C)c2c(c(O)c1CCOP(=O)(O)CP(=O)(O)OC[C@H]1O[C@@H](n3c(Br)nc4c(N)ncnc43)[C@H](O)[C@@H]1O)C(=O)OC2 | 0.186 | 0.039 | 48 | > 100 | > 100 | – | – | – | – | – | – | – | – |
| COc1c(C)c2c(c(O)c1C/C=C(\C)CCC(=O)N[C@H](Cc1c[nH]c3ccccc13)C(=O)O)C(=O)OC2 | 0.174 | 0.032 | > 100 | – | – | – | – | – | > 100 | > 100 | > 100 | – | – |
| COc1c(C)c2c(c(O)c1C/C=C(\C)CCC(=O)N[C@@H](C(=O)NC[C@H]1O[C@@H](n3cnc4c(N)ncnc43)[C@H](O)[C@@H]1O)C(C)C)C(=O)OC2 | 0.088 | 0.003 | > 100 | – | – | – | – | – | > 100 | > 100 | > 100 | – | – |
| COC(=O)[C@H](NC(=O)CC/C(C)=C/Cc1c(O)c2c(c(C)c1OC)COC2=O)C(C)C | 1.96 | 7.72 | 29 | – | – | – | – | – | 61 | 36 | 16 | – | – |
| COC(=O)[C@@H](Cc1c[nH]c2ccccc12)NC(=O)CC/C(C)=C/Cc1c(O)c2c(c(C)c1OC)COC2=O | 0.438 | 0.144 | 14 | – | – | – | – | – | > 100 | 35 | > 100 | – | – |
| COC(=O)CNC(=O)CC/C(C)=C/Cc1c(O)c2c(c(C)c1OC)COC2=O | 0.487 | 0.522 | 16 | – | – | – | – | – | 79 | 22 | 3.1 | – | – |
| COc1c(C)c2c(c(O)c1C/C=C(\C)CCC(=O)NC[C@H]1O[C@@H](n3cnc4c(N)ncnc43)[C@H](O)[C@@H]1O)C(=O)OC2 | 0.084 | 0.265 | 49 | – | – | – | – | – | > 100 | > 100 | > 100 | – | – |
| COC(=O)[C@H](CO)NC(=O)CC/C(C)=C/Cc1c(O)c2c(c(C)c1OC)COC2=O | 0.094 | 1.02 | 4.2 | – | – | – | – | – | > 100 | 18 | 13 | – | – |

Reference: ChEMBL document CHEMBL3097995, “NAD-based inhibitors with anticancer potential” (Bioorg Med Chem Lett, 2014)
